In patent publication US11215619B2 (priority 2019, dated 2022):

How the values were obtained:
[1] = Kinetic studies of 4QI under oligonucleotide deprotection conditions; type: physicochemical
Method: Recall that standard conditions for oligonucleotide deprotection involve heating to 55° C. for 4 h in ammonium hydroxide (Table 3). […] Therefore, all mTBA were deprotected under UltraMild conditions.

[2] = biological target: OTABA; assay: Dye displacement from OTABA mediated by OTA (label-free aptasensor); type: binding; conditions: for Kd: apparent, OTA binding to OTABA from dye displacement, 0.5 μM OTABA; for % D (6 → 0.5 μM): OTA up to 1.5 equiv
Method: For dye displacement from the aptamer mediated by OTA, a 2:1 dye:OTABA mixture (12:6 μM) was treated with aliquots of OTA up to 1.5 equiv. (9 μM). Under these conditions, ThT was poorly displaced from the aptamer, displaying only a 6% drop in emission intensity (FIG. 17d). […] Significant differences in the ability of OTA to displace the dyes from the aptamer was not anticipated. Furthermore, given the relative binding affinities of the dyes for OTABA, ThT was expected to display the greatest ease of displacement. Clearly the ability of OTA to displace the dyes from the aptamer had little to do with the dye aptamer binding affinity.
To determine the analytical potential of the dye displacement assay, the 2:1 dye:OTABA starting mixture was optimized and the OTA titrations were repeated using 0.5 μM OTABA in the presence of 1 μM dye. […] Additions of OTA up to 1.5 equiv (0.75 μM) caused 93% BtC displacement, as evidenced by the loss of emission intensity for the aptamer-bound BtC at 640 nm, coupled with the loss of the ET band at 256 nm for BtC stacking with the G-tetrad of the folded aptamer.
From the OTA titrations involving hemicyanine dye displacement (4QI and BtC), a limit of detection (LoD)˜15 nM (6 ng/mL) and a limit of quantification (LoQ)˜45-47 nM (˜18 ng/mL) were determined (R^2=0.95-0.99). In contrast, an LoD of 73 nM (29 ng/mL) and LoQ of 222 nM (89 ng/mL, R^2=0.85) was determined from the ThT displacement data.

[3] = Solvatochromic studies of 4QI; type: physicochemical
Method: (§1) All fluorescence excitation and emission measurements were made at 25.00° C. using a PTI Alphascan-2 spectrofluorometer equipped with a 1×4 Multicell Block Peltier and temperature controller, with baseline correction and variable slit widths as specified. All fluorescence excitation spectra were recorded at the maximum emission wavelength of the fluorophore and emission spectra were recorded at the maximum excitation wavelength.
Solvatochromatic studies were completed using quartz cells (Hellma 101-QS) with a light path of 10 mm. A 100 μM stock solution of 4QI was prepared in reagent grade DMSO. Using the stock solution, 3 μM solutions of 4QI were prepared in a series of solvents: MQ water, methanol, acetonitrile, THF, chloroform and isopropyl alcohol. After mixing by inversion (×20), emission and excitation spectra for each sample were recorded as described using slit widths of 5 nm.

[4] = Photostability of 4QI within a DNA helix; type: physicochemical; conditions: 6-month period, aqueous buffer pH 7.4
Description: The 4QI dye was attached to a glycerol backbone and converted into a phosphoramidite for site-specific incorporation into DNA using solid phase DNA synthesis.

[5] = Photophysical characterization of 4QI (fluorescence spectrometry); type: physicochemical
Method: as §1
4QI-alcohol and 4QI-DMT contain the same fluorophore such that characterization of 4QI-alcohol is representative of the solvatochromic and photophysical capacity of the 4QI fluorophore. […] Excitation and emission in the visible region as opposed to the ultraviolet (UV) region is favorable because the dye can be excited using a visible lamp rather than a more expensive UV lamp.

[6] = biological target: OTABA; assay: Fluorescent titration of dye binding to OTABA; conditions: for Kd: apparent, dye binding to OTABA; for λem / λex: dye bound to OTABA; for λex (value in parentheses): footnote not given, line below the bound value
Method: Dye interaction with OTABA and subsequent displacement by OTA was initially investigated using fluorescence spectroscopy (FIG. 17) in the previously optimized OTA binding buffer. (Fadock et al., 2017) Additions of OTABA (up to 1.5 equiv.) to the dye (6 μM) caused dose-dependent increases in ligand emission at 488 nm for ThT (240-fold increase at 1.5 equiv. OTABA, FIG. 17a), 605 nm for the 4QI (42-fold, FIG. 17b) and 640 nm for BtC (8-fold, FIG. 17c).

[7] = type: physicochemical; conditions: 6 μM oligonucleotide, 10% K+ buffer
[8] = biological target: thrombin (Homo sapiens, UniProt P00734); conditions: isothermal titration calorimetry (Pagano et al. 2008); cited from earlier work
[9] = first value: 6 μM OTABA, 12 μM dye
[10] = second value: 0.5 μM OTABA, 1 μM dye

Molecule	Kd ([2]; 1 μM dye) [µM]	% D (6 → 0.5 μM) [2, 9] [%]	% D (6 → 0.5 μM) [2, 10] [%]	Kd [6] [µM]	λem [6] [nm]	λex [6] [nm]	λex (value in parentheses) [6]	other results
C[n+]1ccc(/C=C/c2cn(CCCO)c3ccccc23)c2ccccc21.[I-] [4QI, 4-(2-(1-(3-hydroxypropyl)-1H-indol-3-yl)vinyl)-1-methylquinolin-1-ium iodide]	0.356	28	47	2.5	605	532	(493) nm	time to complete bleaching of 4QI absorbance ([1]; Standard deprotection conditions): ≤ 6.5 h; time to complete bleaching of 4QI absorbance ([1]; UltraFast deprotection conditions): ≤ 0.05 h; decrease of fluorescence intensity ([1]; UltraMild conditions, 17-hour kinetic study): 11%; λex max ([3]; Acetonitrile): 494 nm; λex max ([3]; H2O): 486 nm; λex max ([3]; Isopropyl-alcohol): 523 nm; λex max ([3]; Methanol): 512 nm; λex max ([3]; THF): 514 nm; photostability [4]: photostable; Stokes shift [5]: 104 nm; extinction coefficient [5]: 26,660 L/(mol·cm); stokes shift [5]: 90 nm; fluorescence emission ([5]; following excitation at 500 nm): 590 nm; λem maxima ([5]; free in H2O): 580 nm; λex maxima ([5]; free in H2O): 520 nm
CCN(CC)c1ccc2cc(/C=C/c3sc4ccccc4[n+]3C)c(=O)oc2c1 [BtC]	0.112 ± 0.0089	52	93	3.2	640	580	(549) nm	–
Cc1ccc2c(c1)sc(-c1ccc(N(C)C)cc1)[n+]2C [ThT, Thioflavin T]	0.292	6	23	10.9	488	448	(412) nm	–
TBA-15: Native thrombin binding aptamer 5′-GGTTGGTGTGGTTGG	–	–	–	–	–	–	–	Tm GQ [7]: 53.5 °C; Kd [8]: 0.33 µM
